The record followed here is patent US20230057568A1, “COMPOUNDS FOR TREATING FAMILIAL DYSAUTONOMIA” (PTC THERAPEUTICS, INC., priority 2019, published 2023).

The experiment has as its system Elongator complex protein 1 (ELP1, also referred to as IKBKAP). As to the kind of experiment: IKBKAP-HTRF Assay. The class given is cell-based, human. Conditions: FD patient-derived fibroblasts GM04589, 48 hours incubation; for EC2x for IKBKAP protein expression (concentration producing two times the amount of IKBKAP protein vs DMSO vehicle control): 7-point concentration curve; for MFI (maximum fold increase in IKBKAP protein abundance relative to the vehicle control): HTRF. The protocol:
The assay is used for the quantitative determination of Elongator complex protein 1 (ELP1, also referred to as IKBKAP) concentration in cell lysates using the HTRF® (Homogeneous Time-Resolved Fluorescence) technology. IKBKAP is detected in a sandwich HTRF assay by use of an anti-IKAP antibody labeled with a donor and an anti-IKAP antibody labeled with an acceptor.
Cells were thawed and incubated in DMEM-10% FBS for 72 hours. Cells were trypsinized, counted, and re-suspended to a concentration of 50,000 cells/mL in DMEM-10% FBS. A 199 μL, aliquot of the cell suspensions were plated at 10,000 cells per well in a 96 well microtiter plate and incubated for 3 to 5 hours. […] Test compounds were serially diluted 3.16-fold in 100% DMSO to generate a 7-point concentration curve. A 1 μL aliquot of 200× compound solution was transferred to cell-containing wells, and cells were incubated for 48 hours in a cell culture incubator (37° C., 5% CO2, 100% relative humidity). Triplicate samples were set up for each compound concentration. After 48 hours, the supernatant was removed from the cells and 50 μL of the 1× LB4 lysis buffer, containing protease inhibitors, was added to the cells and incubated with shaking at room temperature for 1 hour. A 36 μL aliquot of this lysate was subsequently transferred to the 384-well plate containing 4 μL of the antibody solution (1:50 dilution of anti IKAP d2 and anti-IKAP K(9+8) in detection buffer). The 384-well plate was then centrifuged for 1 minute to bring the solutions to the bottom of the plate and incubated overnight at 4° C. Fluorescence for each well of the plate at 665 nm and 620 nm was measured was on the EnVision plate reader (Perkin Elmer). The AF for each sample is calculated by: […]
wherein Signal is the normalized fluorescence for each sample well and Blank is the average normalized average fluorescence for the Blank control wells.
The maximum fold increase (MFI) in IKBKAP protein abundance for compounds of Formula (I) or a form thereof relative to the vehicle control are provided in Table 1. MFI was calculated by dividing the AF value for each sample well by the sample AF for the vehicle control wells.
The EC2× for IKBKAP protein expression obtained from the 7-point concentration curve generated for each test compound according to the protocol in Biological Example 1 are also provided in Table 1. The term “EC2× for IKBKAP protein expression” is defined as the concentration of test compound that is effective in producing two times the amount of IKBKAP protein in a FD patient cell compared to the amount produced from the DMSO vehicle control.

As for `Cc1c(C[C@@H](N)CO)sc2c(NCc3ccco3)nc(Cl)nc12` [Cpd 19, (2R)-2-Amino-3-(2-chloro-4-{[(furan-2-yl)methyl]amino}-7-methylthieno[3,2-d]pyrimidin-6-yl)propan-1-ol], the “EC2x for IKBKAP protein expression (concentration producing two times the amount of IKBKAP protein vs DMSO vehicle control)” value was “***** (<0.005 μM)” and the “MFI (maximum fold increase in IKBKAP protein abundance relative to the vehicle control)” value is on record as “***** (>4.9)”.
In the case of `Cc1c(C[C@H](C)N)sc2c(NCc3ccco3)nc(C(N)=O)nc12` [Cpd 20, 6-[(2S)-2-aminopropyl]-4-{[(furan-2-yl)methyl]amino}-7-methylthieno[3,2-d]pyrimidine-2-carboxamide], the “EC2x for IKBKAP protein expression (concentration producing two times the amount of IKBKAP protein vs DMSO vehicle control)” value is “* (EC2×>1 μM)”; the “MFI (maximum fold increase in IKBKAP protein abundance relative to the vehicle control)” value was “** (between >1.9 and <2.9)”.
Consider `Cc1c(C[C@H](C)N)sc2c(NCc3ccco3)nc(C#N)nc12` [Cpd 21, 6-[(2S)-2-aminopropyl]-4-{[(furan-2-yl)methyl]amino}-7-methylthieno[3,2-d]pyrimidine-2-carbonitrile], for which the “EC2x for IKBKAP protein expression (concentration producing two times the amount of IKBKAP protein vs DMSO vehicle control)” value is “**** (between >0.005 μM and ≤0.02 μM)”; the “MFI (maximum fold increase in IKBKAP protein abundance relative to the vehicle control)” value is “***** (>4.9)”.
On to `N[C@@H](CO)Cc1cc2nc(Cl)nc(NCc3ccco3)c2s1` [Cpd 22, (2R)-2-amino-3-(2-chloro-4-{[(furan-2-yl)methyl]amino}thieno[3,2-d]pyrimidin-6-yl)propan-l-ol], for which the “EC2x for IKBKAP protein expression (concentration producing two times the amount of IKBKAP protein vs DMSO vehicle control)” value is given as “***** (<0.005 μM)” and the “MFI (maximum fold increase in IKBKAP protein abundance relative to the vehicle control)” value is on record as “***** (>4.9)”.
Regarding `Cc1csc2c(NCc3ccncc3)nc(Cl)nc12` [Cpd 23, 2-chloro-7-methyl-N-[(pyridin-4-yl)methyl]thieno[3,2-d]pyrimidin-4-amine], the “EC2x for IKBKAP protein expression (concentration producing two times the amount of IKBKAP protein vs DMSO vehicle control)” value was “*** (between >0.02 μM and ≤0.5 μM)”; the “MFI (maximum fold increase in IKBKAP protein abundance relative to the vehicle control)” value was “***** (>4.9)”.
Regarding `Cc1ccc(CNc2nc(Cl)nc3c(C)c(C[C@H](C)N)sc23)o1` [Cpd 24, 6-[(2S)-2-aminopropyl]-2-chloro-7-methyl-N-[(5-methylfuran-2-yl)methyl]thieno[3,2-d]pyrimidin-4-amine], the “EC2x for IKBKAP protein expression (concentration producing two times the amount of IKBKAP protein vs DMSO vehicle control)” value was “*** (between >0.02 μM and ≤0.5 μM)”; the “MFI (maximum fold increase in IKBKAP protein abundance relative to the vehicle control)” value was “*** (between >2.9 and <3.9)”.
Turning to `Cc1csc2c(NCc3ccco3)nc(C(F)(F)F)nc12` [Cpd 25, N-[(furan-2-yl)methyl]-7-methyl-2-(trifluoromethyl)thieno[3,2-d]pyrimidin-4-amine], the “EC2x for IKBKAP protein expression (concentration producing two times the amount of IKBKAP protein vs DMSO vehicle control)” value is listed as “* (EC2×>1 μM)” and the “MFI (maximum fold increase in IKBKAP protein abundance relative to the vehicle control)” value is on record as “* (MFI<1.9)”.
For `Cc1c(C[C@H](C)N)sc2c(NCc3ccco3)nc(C(F)(F)F)nc12` [Cpd 26, 6-[(2S)-2-aminopropyl]-N-[(furan-2-yl)methyl]-7-methyl-2-(trifluoromethyl)thieno[3,2-d]pyrimidin-4-amine], the “EC2x for IKBKAP protein expression (concentration producing two times the amount of IKBKAP protein vs DMSO vehicle control)” value was “*** (between >0.02 μM and ≤0.5 μM)”; the “MFI (maximum fold increase in IKBKAP protein abundance relative to the vehicle control)” value is “**** (between >3.9 and <4.9)”.
For `Cc1csc(CNc2nc(Cl)nc3c(C)c(C[C@H](C)N)sc23)n1` [Cpd 27, 6-[(2S)-2-aminopropyl]-2-chloro-7-methyl-N-[(4-methyl-1,3-thiazol-2-yl)methyl]thieno[3,2-d]pyrimidin-4-amine], the “EC2x for IKBKAP protein expression (concentration producing two times the amount of IKBKAP protein vs DMSO vehicle control)” value is “** (between >0.5 μL and ≤1 μM)”; the “MFI (maximum fold increase in IKBKAP protein abundance relative to the vehicle control)” value was “*** (between >2.9 and <3.9)”.
Consider `Cc1c(C[C@H](C)N)sc2c(NCc3cccs3)nc(Cl)nc12` [Cpd 28, 6-[(2S)-2-aminopropyl]-2-chloro-7-methyl-N-[(thiophen-2-yl)methyl]thieno[3,2-d]pyrimidin-4-amine], for which the “EC2x for IKBKAP protein expression (concentration producing two times the amount of IKBKAP protein vs DMSO vehicle control)” value is recorded as “***** (<0.005 μM)” and the “MFI (maximum fold increase in IKBKAP protein abundance relative to the vehicle control)” value is on record as “***** (>4.9)”.
On the same counts, the results for `Cc1c(C[C@H](C)N)sc2c(NCc3nccs3)nc(Cl)nc12` [Cpd 29, 6-[(2S)-2-aminopropyl]-2-chloro-7-methyl-N-[(1,3-thiazol-2-yl)methyl]thieno[3,2-d]pyrimidin-4-amine] are “***** (<0.005 μM)” and “***** (>4.9)”.
As to `Cc1ccoc1CNc1nc(Cl)nc2c(C)c(C[C@H](C)N)sc12` [Cpd 30, 6-[(2S)-2-aminopropyl]-2-chloro-7-methyl-N-[(3-methylfuran-2-yl)methyl]thieno[3,2-d]pyrimidin-4-amine], the “EC2x for IKBKAP protein expression (concentration producing two times the amount of IKBKAP protein vs DMSO vehicle control)” value was “*** (between >0.02 μM and ≤0.5 μM)”; the “MFI (maximum fold increase in IKBKAP protein abundance relative to the vehicle control)” value is “**** (between >3.9 and <4.9)”.
As to `Cc1cnc(CNc2nc(Cl)nc3c(C)c(C[C@H](C)N)sc23)s1` [Cpd 31, 6-[(2S)-2-aminopropyl]-2-chloro-7-methyl-N-[(5-methyl-1,3-thiazol-2-yl)methyl]thieno[3,2-d]pyrimidin-4-amine], the “EC2x for IKBKAP protein expression (concentration producing two times the amount of IKBKAP protein vs DMSO vehicle control)” value is “*** (between >0.02 μM and ≤0.5 μM)”; the “MFI (maximum fold increase in IKBKAP protein abundance relative to the vehicle control)” value is “*** (between >2.9 and <3.9)”.
As to `Cc1c(C[C@H](C)N)sc2c(NCc3cnccn3)nc(Cl)nc12` [Cpd 32, 6-[(2S)-2-aminopropyl]-2-chloro-7-methyl-N-[(pyrazin-2-yl)methyl]thieno[3,2-d]pyrimidin-4-amine], the “EC2x for IKBKAP protein expression (concentration producing two times the amount of IKBKAP protein vs DMSO vehicle control)” value is “*** (between >0.02 μM and ≤0.5 μM)”; the “MFI (maximum fold increase in IKBKAP protein abundance relative to the vehicle control)” value is “**** (between >3.9 and <4.9)”.
As to `Cc1c(C[C@H](C)N)sc2c(NCc3ccc(F)s3)nc(Cl)nc12` [Cpd 33, 6-[(2S)-2-aminopropyl]-2-chloro-N-[(5-fluorothiophen-2-yl)methyl]-7-methylthieno[3,2-d]pyrimidin-4-amine], the “EC2x for IKBKAP protein expression (concentration producing two times the amount of IKBKAP protein vs DMSO vehicle control)” value is “**** (between >0.005 μM and ≤0.02 μM)”; the “MFI (maximum fold increase in IKBKAP protein abundance relative to the vehicle control)” value is “**** (between >3.9 and <4.9)”.
Take `Cc1c(C[C@H](C)N)sc2c(NCc3ccccc3)nc(Cl)nc12` [Cpd 34, 6-[(2S)-2-aminopropyl]-N-benzyl-2-chloro-7-methylthieno[3,2-d]pyrimidin-4-amine]: the “EC2x for IKBKAP protein expression (concentration producing two times the amount of IKBKAP protein vs DMSO vehicle control)” value is “***** (<0.005 μM)” and the “MFI (maximum fold increase in IKBKAP protein abundance relative to the vehicle control)” value is reported as “***** (>4.9)”.
As to `Cc1c(C[C@H](C)N)sc2c(NCc3ccncc3F)nc(Cl)nc12` [Cpd 35, 6-[(2S)-2-aminopropyl]-2-chloro-N-[(3-fluoropyridin-4-yl)methyl]-7-methylthieno[3,2-d]pyrimidin-4-amine], the “EC2x for IKBKAP protein expression (concentration producing two times the amount of IKBKAP protein vs DMSO vehicle control)” value was “***** (<0.005 μM)” and the “MFI (maximum fold increase in IKBKAP protein abundance relative to the vehicle control)” value is listed as “***** (>4.9)”.
Turning to `C[C@H](N)Cc1sc2c(NCc3ccco3)nc(Cl)nc2c1C1CC1` [Cpd 36, 6-[(2S)-2-aminopropyl]-2-chloro-7-cyclopropyl-N-[(furan-2-yl)methyl]thieno[3,2-d]pyrimidin-4-amine], the “EC2x for IKBKAP protein expression (concentration producing two times the amount of IKBKAP protein vs DMSO vehicle control)” value is “**** (between >0.005 μM and ≤0.02 μM)”; the “MFI (maximum fold increase in IKBKAP protein abundance relative to the vehicle control)” value is on record as “***** (>4.9)”.
Regarding `CC[C@H](N)Cc1sc2c(NCc3cccs3)nc(Cl)nc2c1C` [Cpd 37, 6-[(2S)-2-aminobutyl]-2-chloro-7-methyl-N-[(thiophen-2-yl)methyl]thieno[3,2-d]pyrimidin-4-amine], the “EC2x for IKBKAP protein expression (concentration producing two times the amount of IKBKAP protein vs DMSO vehicle control)” value is “***** (<0.005 μM)” and the “MFI (maximum fold increase in IKBKAP protein abundance relative to the vehicle control)” value is listed as “***** (>4.9)”.
The corresponding values for `Cc1c(C[C@H](C)N)sc2c(NCc3ccco3)nc(Br)nc12` [Cpd 38, 6-[(2S)-2-aminopropyl]-2-bromo-N-[(furan-2-yl)methyl]-7-methylthieno[3,2-d]pyrimidin-4-amine] are “***** (<0.005 μM)” and “***** (>4.9)”.
